Results: article PMC3689833, “Neurochemical Changes in the Mouse Hippocampus Underlying the Antidepressant Effect of Genetic Deletion of P2X7 Receptors” (PLoS ONE, 2013)

Test system: acute hippocampal slices
Test: [3H]Glutamate and endogenous glutamate release from acute hippocampal slices
Type: cell-based, mouse
Settings: P2rx7−/− slices, ATP 10 mM, antagonist 100 nM 15 min before ATP
Experimental: The [^3H]Glu release experiments were conducted using the method described in our previous papers. Briefly, the mice were anaesthetized under light CO2 inhalation, and subsequently decapitated. The hippocampus was dissected from each mouse in ice-cold Krebs solution saturated with 95% O2 and 5% CO2, sectioned (400-µm-thick slices) using a McIlwain tissue chopper and incubated in 1 ml of modified Krebs solution (113 mM NaCl, 4.7 mM KCl, 2.5 mM CaCl2, 1.2 mM KH2PO4, 1.2 mM MgSO4, 25.0 mM NaHCO3, and 11.5 mM glucose), pH 7.4, in the presence of 5 µCi/ml [^3H]glutamic acid ([^3H]Glu, 9.8×10^−8 M, specific activity 51 Ci/mmol; Perkin Elmer) for 45 min. The medium was bubbled with 95% O2 and 5% CO2 and maintained at 32°C. After loading, the slices were continuously superfused with 95% O2 and 5% CO2-saturated modified Krebs solution (flow rate: 0.7 ml/min).
Subsequently, the perfused samples were collected over a 3-min period and measured for tritium content. At 6 min after the start of the collection, the slices were subjected to a 6-min perfusion of the agonist (ATP) at various concentrations (1, 3, 6 and 10 mM) and then changed to normal Krebs solution until the end of the collection period. In some experiments, the P2X1 receptor antagonist, NF449 (100 nM), or the selective P2rx7 antagonist Brilliant blue G (100 nM) was applied to the perfusion solution at 15 min before the beginning of the ATP perfusion.
The radioactivity released from the preparations was measured using a Packard 1900 Tricarb liquid scintillation spectrometer, using Ultima Gold Scintillation cocktail. The release of tritium was expressed as a percentage of the amount of radioactivity in the tissue at the sample collection time (fractional release). The tritium uptake in the tissue was determined as the sum of release+the tissue content after the experiment and expressed in Bq/g. For the evaluation of the basal tritium outflow the fractional release measured in four consecutive 3 min samples under drug free conditions were taken into account. The ATP-induced [^3H]Glu efflux calculated as the net release in response to the respective stimulus by subtracting the release before the stimulation from the values measured after stimulation. Selected samples collected under resting conditions and during the peak of the ATP-evoked response were subjected to further HPLC analyses.
The separation of pre-column dansylated amino acids was performed using a gradient elution-working mode at ambient temperature. The mobile phase A consisted of 5/95 (v/v) 78/22 acetonitrile/methanol in 15 mM ammonium formate buffer, and the mobile phase B was composed of 90/10 (v/v 78/22) acetonitrile/methanol in ammonium formate buffer, pH 3.7. The mobile phase B increased linearly (at 0.11 min to 50% 17 min to 72% and 26 min to 100%, followed by a final run to 54 min), the flow rate was 0.7 ml/min. The analytical and the trap column were equilibrated for 10 min, and enrichment and clean-up procedures were performed. The dansylated derivatives were detected using an absorbance detector (Agilent 1100) at a 319 nm wavelength. The retention time of the dansylated Glu was 11.4 min. Pre-column derivatization was performed by mixing 50 µl of dansyl chloride prepared by dissolving 5 mg 5-(dimethylamino)naphthalene-1-sulfonyl chloride in acetonitrile daily and adding 50 µl of 2 M sodium carbonate, which contained norvaline (20 µM) as an internal standard in 25 µl of sample. After a 10-min reaction time at 60°C, the mixture was acidified using 25 µl of 6 M formic acid and injected onto the “trap-column”.

CCOc1ccc(Nc2ccc(/C(=C3C=C/C(=[N+](/CC)Cc4cccc(S(=O)(=O)[O-])c4)C=C/3C)c3ccc(N(CC)Cc4cccc(S(=O)(=O)O)c4)cc3C)cc2)cc1 [BBG, Brilliant blue G]
residual ATP-evoked [3H]Glu efflux in presence of antagonist: 0.56±0.25%
